Test results published in publication PMC5218480 (PLoS ONE, 2017).

Test system: MV-4-11 cells
Test: Gene expression microarray analysis (Affymetrix PrimeView) and GSEA
Assay type: cell-based, human
Design: RFU PODN (11730768_x_at) / Fold change /veh PODN (11730768_x_at) / RFU LINC00158 (11744669_a_at) / Fold change /veh LINC00158 (11744669_a_at) / RFU DUSP10 (11751237_a_at) / Fold change /veh DUSP10 (11751237_a_at) / RFU ID3 (11757404_x_at) / Fold change /veh ID3 (11757404_x_at) / RFU PLEKHG5 (11737974_s_at) / Fold change /veh PLEKHG5 (11737974_s_at) / RFU LRRC4B (11730491_at) / Fold change /veh LRRC4B (11730491_at) / RFU GIMAP4 (11747438_a_at) / Fold change /veh GIMAP4 (11747438_a_at) / RFU KRT8 (11758183_x_at) / Fold change /veh KRT8 (11758183_x_at) / RFU CNN1 (11734310_a_at) / Fold change /veh CNN1 (11734310_a_at) / RFU VPS37D (11726825_at) / Fold change /veh VPS37D (11726825_at) / RFU C10orf10 (11716522_x_at) / Fold change /veh C10orf10 (11716522_x_at) / RFU KIR2DL2 /// KIR2DL4 /// KIR2DL5A /// KIR2DL5B /// KIR2DS1 /// KIR2DS2 /// KIR2DS3 /// KIR2DS4 /// KIR3DL3 /// KIR3DL3 /// KIR3DS1 (11738374_at) / Fold change /veh KIR2DL2 /// KIR2DL4 /// KIR2DL5A /// KIR2DL5B /// KIR2DS1 /// KIR2DS2 /// KIR2DS3 /// KIR2DS4 /// KIR3DL3 /// KIR3DL3 /// KIR3DS1 (11738374_at) / RFU C1QL1 (11718748_at) / Fold change /veh C1QL1 (11718748_at) / RFU TMPRSS4 (11747572_a_at) / Fold change /veh TMPRSS4 (11747572_a_at) / RFU HAMP (11756126_x_at) / Fold change /veh HAMP (11756126_x_at) / RFU RNFT2 (11725882_a_at) / Fold change /veh RNFT2 (11725882_a_at) / RFU NR4A2 (11747474_a_at) / Fold change /veh NR4A2 (11747474_a_at) / RFU ABCC12 (11746883_a_at) / Fold change /veh ABCC12 (11746883_a_at) / RFU TMEM136 (11760407_x_at) / Fold change /veh TMEM136 (11760407_x_at) / RFU CLDN22 /// WWC2 (11732394_at) / Fold change /veh CLDN22 /// WWC2 (11732394_at) / RFU HLA-DPB1 (11760878_x_at) / Fold change /veh HLA-DPB1 (11760878_x_at) / RFU SPINT1 (11716480_a_at) / Fold change /veh SPINT1 (11716480_a_at) / RFU GAP43 (11754022_s_at) / Fold change /veh GAP43 (11754022_s_at) / RFU A4GNT (11735810_at) / Fold change /veh A4GNT (11735810_at) / RFU PRB3 (11715151_x_at) / Fold change /veh PRB3 (11715151_x_at) / RFU TUBB4B (11761932_at) / Fold change /veh TUBB4B (11761932_at) / RFU CAPN14 (11732068_a_at) / Fold change /veh CAPN14 (11732068_a_at) / RFU TMCC2 (11721928_a_at) / Fold change /veh TMCC2 (11721928_a_at) / RFU IRGQ (11745062_a_at) / Fold change /veh IRGQ (11745062_a_at) / RFU FAM174B (11720279_a_at) / Fold change /veh FAM174B (11720279_a_at) / RFU TMPRSS4 (11748680_a_at) / Fold change /veh TMPRSS4 (11748680_a_at) / RFU FAM212B (11763350_a_at) / Fold change /veh FAM212B (11763350_a_at) / RFU PLEKHG5 (11743358_a_at) / Fold change /veh PLEKHG5 (11743358_a_at) / RFU ZSCAN30 (11745921_a_at) / Fold change /veh ZSCAN30 (11745921_a_at) / RFU CMKLR1 (11741424_a_at) / Fold change /veh CMKLR1 (11741424_a_at) / RFU LOC101060620 /// MAPK8IP1 (11723275_at) / Fold change /veh LOC101060620 /// MAPK8IP1 (11723275_at) / RFU SPTSSB (11747773_x_at) / Fold change /veh SPTSSB (11747773_x_at) / RFU PRSS12 (11739890_at) / Fold change /veh PRSS12 (11739890_at) / RFU BIN1 (11741810_x_at) / Fold change /veh BIN1 (11741810_x_at) / RFU WNT11 (11732464_a_at) / Fold change /veh WNT11 (11732464_a_at) / RFU C10orf10 (11716521_a_at) / Fold change /veh C10orf10 (11716521_a_at) / RFU C5orf56 (11738089_at) / Fold change /veh C5orf56 (11738089_at) / RFU CYB561 (11721691_x_at) / Fold change /veh CYB561 (11721691_x_at) / RFU ANKRD19P (11752326_a_at) / Fold change /veh ANKRD19P (11752326_a_at) / RFU OR2T12 /// OR2T33 /// OR2T8 (11738714_s_at) / Fold change /veh OR2T12 /// OR2T33 /// OR2T8 (11738714_s_at) / RFU VCAN (11748164_a_at) / Fold change /veh VCAN (11748164_a_at) / RFU JSRP1 (11732532_at) / Fold change /veh JSRP1 (11732532_at) / RFU KRTAP10-11 (11738290_x_at) / Fold change /veh KRTAP10-11 (11738290_x_at) / RFU MYO3A (11730013_a_at) / Fold change /veh MYO3A (11730013_a_at) / RFU EBF3 (11725865_a_at) / Fold change /veh EBF3 (11725865_a_at) / RFU CAMK2N1 (11719241_x_at) / Fold change /veh CAMK2N1 (11719241_x_at) / RFU C5orf56 (11738088_a_at) / Fold change /veh C5orf56 (11738088_a_at) / RFU OLFML3 (11715873_a_at) / Fold change /veh OLFML3 (11715873_a_at) / RFU LOC100653217 /// NTM (11731650_a_at) / Fold change /veh LOC100653217 /// NTM (11731650_a_at) / RFU MAPK11 (11762145_a_at) / Fold change /veh MAPK11 (11762145_a_at) / RFU FIZ1 (11724087_x_at) / Fold change /veh FIZ1 (11724087_x_at) / RFU OASL (11726364_x_at) / Fold change /veh OASL (11726364_x_at) / RFU SOX15 (11748057_x_at) / Fold change /veh SOX15 (11748057_x_at) / RFU CD79A (11719716_a_at) / Fold change /veh CD79A (11719716_a_at) / RFU HIST1H1D (11736915_at) / Fold change /veh HIST1H1D (11736915_at) / RFU CASKIN2 (11723855_a_at) / Fold change /veh CASKIN2 (11723855_a_at) / RFU LOC730098 (11760151_x_at) / Fold change /veh LOC730098 (11760151_x_at) / RFU OR4N2 (11742367_at) / Fold change /veh OR4N2 (11742367_at) / RFU PRRT2 (11749266_a_at) / Fold change /veh PRRT2 (11749266_a_at) / RFU SNX32 (11753110_a_at) / Fold change /veh SNX32 (11753110_a_at) / RFU CDHR5 (11726645_a_at) / Fold change /veh CDHR5 (11726645_a_at) / RFU RCAN1 (11760418_a_at) / Fold change /veh RCAN1 (11760418_a_at) / RFU FAM167A (11723789_a_at) / Fold change /veh FAM167A (11723789_a_at) / RFU FAM26E (11764081_at) / Fold change /veh FAM26E (11764081_at) / RFU ISYNA1 (11749810_s_at) / Fold change /veh ISYNA1 (11749810_s_at) / RFU ACY1 (11761880_at) / Fold change /veh ACY1 (11761880_at) / RFU 11764098_at / Fold change /veh 11764098_at / RFU SAMD14 (11745864_x_at) / Fold change /veh SAMD14 (11745864_x_at) / RFU NPB (11741838_a_at) / Fold change /veh NPB (11741838_a_at) / RFU TMPRSS6 (11731388_a_at) / Fold change /veh TMPRSS6 (11731388_a_at) / RFU KRTAP10-2 (11738614_at) / Fold change /veh KRTAP10-2 (11738614_at) / RFU ARHGAP8 /// PRR5-ARHGAP8 (11727945_x_at) / Fold change /veh ARHGAP8 /// PRR5-ARHGAP8 (11727945_x_at) / RFU KRTAP5-7 /// NADSYN1 (11734609_at) / Fold change /veh KRTAP5-7 /// NADSYN1 (11734609_at) / RFU RASL12 (11751679_a_at) / Fold change /veh RASL12 (11751679_a_at) / RFU CDKN2B (11736163_a_at) / Fold change /veh CDKN2B (11736163_a_at) / RFU PRF1 (11729649_at) / Fold change /veh PRF1 (11729649_at) / RFU, ZNF638 /// ZNF638-IT1 / Fold change vs veh, ZNF638 /// ZNF638-IT1 / RFU, PANK3 / Fold change vs veh, PANK3 / RFU, SH3YL1 / Fold change vs veh, SH3YL1 / RFU, ZEB2 / Fold change vs veh, ZEB2 / RFU, NRIP1 / Fold change vs veh, NRIP1 / RFU, PTTG1IP / Fold change vs veh, PTTG1IP / RFU, CAPN2 / Fold change vs veh, CAPN2 / RFU, MED14 / Fold change vs veh, MED14 / RFU, SNORA58 / Fold change vs veh, SNORA58 / RFU, C1orf63 / Fold change vs veh, C1orf63 / RFU, LRRFIP1 / Fold change vs veh, LRRFIP1 / RFU, NDUFAF7 / Fold change vs veh, NDUFAF7 / RFU, SLC12A2 / Fold change vs veh, SLC12A2 / RFU, IBTK / Fold change vs veh, IBTK / RFU, ESF1 / Fold change vs veh, ESF1 / Fold change vs veh, TMEM50B / RFU, TAOK1 / Fold change vs veh, TAOK1 / RFU, ACBD3 / Fold change vs veh, ACBD3 / RFU, TMA16 / Fold change vs veh, TMA16 / RFU, RWDD3 / Fold change vs veh, RWDD3 / RFU, BCAT1 / Fold change vs veh, BCAT1 / RFU, EDEM3 / Fold change vs veh, EDEM3 / RFU, TMEM33 / Fold change vs veh, TMEM33 / RFU, WDR75 / Fold change vs veh, WDR75 / RFU, AHCTF1 / Fold change vs veh, AHCTF1 / RFU, TFRC / Fold change vs veh, TFRC / RFU, ZDHHC17 / Fold change vs veh, ZDHHC17 / RFU, NOM1 / Fold change vs veh, NOM1 / RFU, ARL8B / Fold change vs veh, ARL8B / RFU, ZBTB11 / Fold change vs veh, ZBTB11 / RFU, TAMM41 / Fold change vs veh, TAMM41 / RFU, KIAA1704 /// LOC100996395 / Fold change vs veh, KIAA1704 /// LOC100996395 / RFU, ING1 / Fold change vs veh, ING1 / RFU, TRMT61B / Fold change vs veh, TRMT61B / RFU, FUBP3 / Fold change vs veh, FUBP3 / RFU, TP53 / Fold change vs veh, TP53 / RFU, TNKS2 / Fold change vs veh, TNKS2 / RFU, ZFP14 / Fold change vs veh, ZFP14 / RFU, ACTR2 / Fold change vs veh, ACTR2 / RFU, PPP3R1 / Fold change vs veh, PPP3R1 / RFU, PIK3R1 / Fold change vs veh, PIK3R1 / RFU, HNRNPA1 / Fold change vs veh, HNRNPA1 / RFU, RNF170 / Fold change vs veh, RNF170 / RFU, ZNF28 / Fold change vs veh, ZNF28 / RFU, RNGTT / Fold change vs veh, RNGTT / RFU, OGT / Fold change vs veh, OGT / RFU, BRD1 / Fold change vs veh, BRD1 / RFU, MARS / Fold change vs veh, MARS / RFU, ZNF655 / Fold change vs veh, ZNF655 / RFU, FAHD1 / Fold change vs veh, FAHD1 / RFU, BDP1 / Fold change vs veh, BDP1 / RFU, LRRCC1 / Fold change vs veh, LRRCC1 / RFU, ARID1A / Fold change vs veh, ARID1A / RFU, ZNF146 / Fold change vs veh, ZNF146 / RFU, ZNF330 / Fold change vs veh, ZNF330 / RFU, GPN3 / Fold change vs veh, GPN3 / RFU, C9orf123 / Fold change vs veh, C9orf123 / RFU, N4BP2L2 / Fold change vs veh, N4BP2L2 / RFU, ARFIP1 / Fold change vs veh, ARFIP1 / RFU, FAM179B / Fold change vs veh, FAM179B / RFU, BCL10 / Fold change vs veh, BCL10 / RFU, UHRF1BP1L / Fold change vs veh, UHRF1BP1L / RFU, BET1 / Fold change vs veh, BET1 / RFU, CNOT2 / Fold change vs veh, CNOT2 / RFU, ZNF268 / Fold change vs veh, ZNF268 / Fold change vs veh, ZNF507 / RFU, DGCR2 / Fold change vs veh, DGCR2 / RFU, WDSUB1 / Fold change vs veh, WDSUB1 / Fold change vs veh, HSP90B1 /// MIR3652 / RFU, ADSS / Fold change vs veh, ADSS / RFU, GK / Fold change vs veh, GK / RFU, ZNF148 / Fold change vs veh, ZNF148 / RFU, TAF9 / Fold change vs veh, TAF9 / RFU, SLC1A5 / Fold change vs veh, SLC1A5 / RFU, SLMO2 / Fold change vs veh, SLMO2 / RFU, ABCC4 / Fold change vs veh, ABCC4 / RFU, LOC101060439 /// RAP1B / Fold change vs veh, LOC101060439 /// RAP1B / RFU, RFX7 / Fold change vs veh, RFX7 / RFU, GTPBP10 / Fold change vs veh, GTPBP10 / RFU, CNEP1R1 / Fold change vs veh, CNEP1R1 / RFU, BIVM-ERCC5 /// ERCC5 / Fold change vs veh, BIVM-ERCC5 /// ERCC5 / RFU, ILF3 / Fold change vs veh, ILF3 / RFU 11762660_at / Fold change /veh 11762660_at / RFU VCAN (11757783_s_at) / Fold change /veh VCAN (11757783_s_at) / RFU DDX43 (11728927_at) / Fold change /veh DDX43 (11728927_at) / RFU KRT8 (11758188_x_at) / Fold change /veh KRT8 (11758188_x_at) / RFU NKD1 (11759106_at) / Fold change /veh NKD1 (11759106_at) / RFU SRD5A1 (11742802_a_at) / Fold change /veh SRD5A1 (11742802_a_at) / RFU TPSAB1 /// TPSB2 (11721975_s_at) / Fold change /veh TPSAB1 /// TPSB2 (11721975_s_at) / RFU GSTM3 (11746129_a_at) / Fold change /veh GSTM3 (11746129_a_at) / RFU IL23R (11737362_x_at) / Fold change /veh IL23R (11737362_x_at) / RFU TMEM51 (11727254_a_at) / Fold change /veh TMEM51 (11727254_a_at) / RFU PIWIL2 (11732686_x_at) / Fold change /veh PIWIL2 (11732686_x_at) / RFU ORM1 (11744905_x_at) / Fold change /veh ORM1 (11744905_x_at) / RFU CCDC152 (11743942_at) / Fold change /veh CCDC152 (11743942_at) / RFU ECM1 (11717891_a_at) / Fold change /veh ECM1 (11717891_a_at) / RFU IL23R (11748794_a_at) / Fold change /veh IL23R (11748794_a_at) / RFU TNFAIP8L3 (11732012_x_at) / Fold change /veh TNFAIP8L3 (11732012_x_at) / RFU MBOAT4 (11741988_at) / Fold change /veh MBOAT4 (11741988_at) / RFU 11764193_at / Fold change /veh 11764193_at / RFU TMEM53 (11763286_at) / Fold change /veh TMEM53 (11763286_at) / RFU MAGEB2 (11727129_at) / Fold change /veh MAGEB2 (11727129_at) / RFU TMEM200A (11744735_a_at) / Fold change /veh TMEM200A (11744735_a_at) / RFU CCDC152 (11751479_a_at) / Fold change /veh CCDC152 (11751479_a_at) / RFU FAM211A (11726209_a_at) / Fold change /veh FAM211A (11726209_a_at) / RFU RGS16 (11746705_a_at) / Fold change /veh RGS16 (11746705_a_at) / RFU VCAN (11755009_s_at) / Fold change /veh VCAN (11755009_s_at) / RFU RHOB (11743442_s_at) / Fold change /veh RHOB (11743442_s_at) / RFU RGS16 (11720943_a_at) / Fold change /veh RGS16 (11720943_a_at) / RFU RGS16 (11720944_at) / Fold change /veh RGS16 (11720944_at) / RFU, VPS4B / Fold change vs veh, VPS4B / RFU, CREB1 / Fold change vs veh, CREB1 / RFU, DNAJC13 / Fold change vs veh, DNAJC13 / RFU, GNAQ / Fold change vs veh, GNAQ / RFU, CDK5R1 / Fold change vs veh, CDK5R1 / RFU, ZRANB3 / Fold change vs veh, ZRANB3 / RFU, CUL4A / Fold change vs veh, CUL4A / RFU, CCNY / Fold change vs veh, CCNY / RFU, UFL1 / Fold change vs veh, UFL1 / RFU, COG3 / Fold change vs veh, COG3 / RFU, DIAPH2 / Fold change vs veh, DIAPH2 / RFU, SKA2 / Fold change vs veh, SKA2 / RFU, AFF3 / Fold change vs veh, AFF3 / RFU, LMF1 / Fold change vs veh, LMF1 / RFU, IPO11 / Fold change vs veh, IPO11 / RFU, DFFB / Fold change vs veh, DFFB / RFU, FOXP1 / Fold change vs veh, FOXP1 / RFU, CARD8 / Fold change vs veh, CARD8 / RFU, STRN3 / Fold change vs veh, STRN3 / RFU, ADK / Fold change vs veh, ADK / RFU, RASSF2 / Fold change vs veh, RASSF2 / RFU, WIPF1 / Fold change vs veh, WIPF1 / RFU, LARP1B / Fold change vs veh, LARP1B / RFU, RASA1 / Fold change vs veh, RASA1 / RFU, RB1 / Fold change vs veh, RB1 / RFU, PPFIA1 / Fold change vs veh, PPFIA1 / RFU, MAT2A / Fold change vs veh, MAT2A / RFU, CCT5 / Fold change vs veh, CCT5 / RFU, WDR92 / Fold change vs veh, WDR92 / RFU, CUX1 / Fold change vs veh, CUX1 / RFU, TTC7A / Fold change vs veh, TTC7A / RFU, TMEM135 / Fold change vs veh, TMEM135 / RFU, DEPTOR / Fold change vs veh, DEPTOR / RFU, CPM / Fold change vs veh, CPM / RFU, DNAJB6 / Fold change vs veh, DNAJB6 / RFU, CACNA2D3 / Fold change vs veh, CACNA2D3 / RFU, DTX4 / Fold change vs veh, DTX4 / RFU, TFCP2 / Fold change vs veh, TFCP2 / RFU, GMCL1 /// GMCL1P1 / Fold change vs veh, GMCL1 /// GMCL1P1 / RFU, AEBP2 / Fold change vs veh, AEBP2 / RFU, SNHG1 /// SNORD22 /// SNORD25 /// SNORD26 /// SNORD27 /// SNORD28 /// SNORD29 /// SNORD31 / Fold change vs veh, SNHG1 /// SNORD22 /// SNORD25 /// SNORD26 /// SNORD27 /// SNORD28 /// SNORD29 /// SNORD31 / Fold change (Aza/veh), C12orf56 (ProbeSet 11735607_a_at) / Fold change (ACY-1035/veh), C12orf56 (ProbeSet 11735607_a_at) / Fold change (Aza/veh), FGFR1OP (ProbeSet 11751329_s_at) / Fold change (ACY-1035/veh), FGFR1OP (ProbeSet 11751329_s_at) / Fold change (Aza/veh), VPS36 (ProbeSet 11739960_a_at) / Fold change (ACY-1035/veh), VPS36 (ProbeSet 11739960_a_at) / RFU SYPL1 (11715823_x_at) / Fold change /veh SYPL1 (11715823_x_at) / RFU IGFBP7 (11715501_s_at) / Fold change /veh IGFBP7 (11715501_s_at) / RFU REEP3 (11722064_at) / Fold change /veh REEP3 (11722064_at) / RFU IGLL1 (11728026_x_at) / Fold change /veh IGLL1 (11728026_x_at): dose or concentration left out as unconfirmed
Conditions: MV-4-11 cells, 48 hours

Nc1ncn([C@@H]2O[C@H](CO)[C@@H](O)[C@H]2O)c(=O)n1 [azacitidine]
RFU FIZ1 (11724087_x_at): 32.14 RFU
